# Patent publication US20220226496A1, “LIGAND-DRUG CONJUGATE INCLUDING LINKER HAVING TRIS STRUCTURE” (LEGOCHEM BIOSCIENCES, INC., priority 2019, published 2022)
# Non-standard residues stand in square brackets, D forms with d. Residues, ends and D or L forms follow the SMILES beside them. *: point of attachment. Dolaproine = CO[C@@H]([C@@H]1CCCN1)[C@@H](C)C(=O)O; Dil = CC[C@H](C)[C@H](NC)[C@@H](CC(=O)O)OC; X1 = C[C@@H](N*)[C@@H](O)c1ccccc1; NMeV = CN[C@H](C(=O)O)C(C)C
# Assays:
# Experiment in all cases: In vitro cytotoxicity evaluation (cell proliferation inhibition, SRB dye)
# Format in all cases: cell-based, human
# JIMT-1 (HER2 positive) = conditions: JIMT-1 cells, SRB viable cell count; no 144 h footnote (168-hour treatment group)
# Procedure: (§1) The cell proliferation inhibitory activity of the drug and ADCs listed in Table 2 below on cancer cell lines was measured. As the cancer cell lines, commercially available human breast cancer cell lines MCF-7 (HER2 negative to normal), SK-BR3 (HER2 positive), and JIMT-1 (HER2 positive) were used. MMAE was used as the drug, and the ADCs in Table 1 were used as the ADC. Each cancer cell line was seeded in a 96-well plate at 2,500 to 5,000 cells per well for 144-hour treatment group and 1,500 to 3,000 cells per well for 168-hour treatment group, cultured for 24 hours, and then treated with the ADCs and drug at concentrations of 0.00015 to 10.0 nM (4-fold serial dilution) or 0.0015 to 10 nM (3-fold serial dilution). After 144/168 hours, the number of viable cells was quantified using SRB (sulforhodamine B) dye.
# [1] = test system: MCF-7 (HER2 negative to normal); conditions: MCF7 cells, SRB viable cell count; no 144 h footnote (168-hour treatment group)
# Procedure: as §1
# SK-BR3 (HER2 positive) = conditions: SK-BR3 cells, SRB viable cell count; no 144 h footnote (168-hour treatment group)
# Procedure: as §1
structure (smiles),measurement,setting,value
"CC[C@H](C)[C@@H]([C@@H](CC(=O)N1CCC[C@H]1[C@H](OC)[C@@H](C)C(=O)N[C@H](C)[C@@H](O)c1ccccc1)OC)N(C)C(=O)[C@@H](NC(=O)[C@@H](NC)C(C)C)C(C)C [MMAE, monomethyl auristatin E] (H-[NMeV]V[Dil][Dolaproine]-X1)",CC50,JIMT-1 (HER2 positive),0.09 nM
same,CC50,[1],0.31 nM
same,CC50,SK-BR3 (HER2 positive),0.12 nM
